Test results: ChEMBL document CHEMBL5038653, “A Brain-Penetrant and Bioavailable Pyrazolopiperazine BACE1 Inhibitor Elicits Sustained Reduction of Amyloid β In Vivo” (ACS Med Chem Lett, 2022)

Columns and labels:
[1] = Drug level in CD-1 mouse plasma at 10 mg/kg, po measured at 2 hr post dose; type: ADME, organism-based
[2] = Ratio of unbound drug concentration in brain to blood in CD-1 mouse at 10 mg/kg, po measured at 4 hr post dose; type: ADME, organism-based
[3] = Volume of distribution at steady state in dog at 0.25 mg/kg, iv; type: ADME, organism-based, Canis lupus familiaris; settings: in vivo, read-out: Vdss
MDR1 = experiment: Efflux ratio of apparent permeability in dog MDCK-MDR1 cells; type: ADME, cell-based, Canis lupus familiaris
[4] = Half life in mouse at 0.28 mg/kg, iv; type: ADME, organism-based; settings: in vivo
[5] = In vivo inhibition of BACE1 in Beagle dog assessed as reduction of amyloid beta (1 to 42 residues) levels in CSF at 5 mg/kg, po measured at 8 to 24 hrs; type: functional, Canis lupus familiaris; set-up: scale not given: the % may be the effect or the level left; settings: time 8-24 hrs
[6] = Drug level in CD-1 mouse plasma at 10 mg/kg, po measured at 1 hr post dose; type: ADME, organism-based
Cytochrome P450 3A4 = Cytochrome P450 3A4 (Homo sapiens, UniProt P08684); experiment: Inhibition of human CYP3A4 using testosterone as substrate by fluorescence plate reader analysis; type: ADME
Cytochrome P450 3A4, sequence (P08684 whole entry): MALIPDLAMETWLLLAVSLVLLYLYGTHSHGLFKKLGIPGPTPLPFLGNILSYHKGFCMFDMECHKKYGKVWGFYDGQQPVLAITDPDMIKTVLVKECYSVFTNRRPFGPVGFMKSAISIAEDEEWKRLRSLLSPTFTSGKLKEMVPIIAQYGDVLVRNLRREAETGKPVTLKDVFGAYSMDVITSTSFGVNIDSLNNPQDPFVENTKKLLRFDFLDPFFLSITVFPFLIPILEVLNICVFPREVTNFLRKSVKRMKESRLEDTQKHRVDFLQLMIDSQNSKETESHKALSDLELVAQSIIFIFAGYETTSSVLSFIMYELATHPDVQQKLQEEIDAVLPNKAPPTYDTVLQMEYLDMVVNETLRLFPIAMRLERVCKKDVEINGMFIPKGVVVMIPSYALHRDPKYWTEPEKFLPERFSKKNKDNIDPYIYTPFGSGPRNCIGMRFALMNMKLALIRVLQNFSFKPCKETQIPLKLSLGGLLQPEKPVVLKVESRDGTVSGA

[7] = Cardiotoxicity in guinea pig assessed as effect on QRS interval upto 5 mg/kg, iv administered over 10 mins at 30 mins interval by ECG analysis; type: toxicity, organism-based, Cavia porcellus; settings: in vivo
[8] = In vivo inhibition of CD-1 mouse assessed as remaining amyloid beta (1 to 42 residues) levels in CSF at 10 mg/kg, po measured at 2 hrs; type: functional
Cytochrome P450 2C8 = biological target: T1, Cytochrome P450 2C8 (Homo sapiens, UniProt P10632); experiment: Inhibition of human CYP2C8 by fluorescence plate reader analysis; type: ADME
T1 sequence (P10632 whole entry): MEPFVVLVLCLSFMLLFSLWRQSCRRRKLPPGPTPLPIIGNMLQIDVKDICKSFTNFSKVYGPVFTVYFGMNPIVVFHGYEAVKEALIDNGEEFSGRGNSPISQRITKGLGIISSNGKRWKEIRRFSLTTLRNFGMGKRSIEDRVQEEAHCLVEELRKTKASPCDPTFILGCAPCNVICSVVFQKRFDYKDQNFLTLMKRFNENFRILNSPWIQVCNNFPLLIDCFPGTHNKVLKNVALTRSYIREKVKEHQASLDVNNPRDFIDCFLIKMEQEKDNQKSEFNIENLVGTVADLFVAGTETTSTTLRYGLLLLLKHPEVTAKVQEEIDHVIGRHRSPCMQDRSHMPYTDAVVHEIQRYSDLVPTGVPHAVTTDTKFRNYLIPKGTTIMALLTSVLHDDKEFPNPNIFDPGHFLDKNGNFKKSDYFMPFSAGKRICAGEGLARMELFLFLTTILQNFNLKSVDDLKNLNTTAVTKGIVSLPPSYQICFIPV

[9] = Cardiotoxicity in guinea pig assessed as effect on blood pressure upto 5 mg/kg, iv administered over 10 mins at 30 mins interval; type: toxicity, organism-based, Cavia porcellus; settings: in vivo
[10] = Drug level in CD-1 mouse plasma at 10 mg/kg, po measured at 4 hr post dose; type: ADME, organism-based
[11] = Free drug concentration in rat brain measured after 5 hrs by HPLC-MS/MS method; type: ADME, tissue-based
[12] = Free drug concentration in mouse plasma measured after 4.5 hrs by HPLC-MS/MS method; type: ADME, cell-free
[13] = Tmax in rat at 2.3 mg/kg, po; type: ADME, organism-based; settings: in vivo
[14] = AUC (0 to last) in rat at 2.5 mg/kg, po; type: ADME, organism-based; set-up: route oral, time 0 - last, dose 2.5 mg/kg; settings: in vivo
[15] = Apparent permeability across apical to basolateral side in dog MDCK-MDR1 cells at 5 uM incubated for 120 mins; type: ADME, cell-based, Canis lupus familiaris
[16] = Dissociation constant, pKa of the compound by fast UV-spectrometric titration analysis; type: physicochemical
[17] = Volume of distribution at steady state in rat at 0.25 mg/kg, iv; type: ADME, organism-based; settings: in vivo, read-out: Vdss
[18] = Cardiotoxicity in guinea pig assessed as effect on QT interval upto 5 mg/kg, iv administered over 10 mins at 30 mins interval by ECG analysis; type: toxicity, organism-based, Cavia porcellus; settings: in vivo
[19] = Oral bioavailability in dog at 2.5 mg/kg; type: ADME, organism-based, Canis lupus familiaris; settings: in vivo
Cytochrome P450 2C19 = Cytochrome P450 2C19 (Homo sapiens, UniProt P33261); experiment: Inhibition of human CYP2C19 by fluorescence plate reader analysis; type: ADME
Cytochrome P450 2C19, sequence (P33261 whole entry): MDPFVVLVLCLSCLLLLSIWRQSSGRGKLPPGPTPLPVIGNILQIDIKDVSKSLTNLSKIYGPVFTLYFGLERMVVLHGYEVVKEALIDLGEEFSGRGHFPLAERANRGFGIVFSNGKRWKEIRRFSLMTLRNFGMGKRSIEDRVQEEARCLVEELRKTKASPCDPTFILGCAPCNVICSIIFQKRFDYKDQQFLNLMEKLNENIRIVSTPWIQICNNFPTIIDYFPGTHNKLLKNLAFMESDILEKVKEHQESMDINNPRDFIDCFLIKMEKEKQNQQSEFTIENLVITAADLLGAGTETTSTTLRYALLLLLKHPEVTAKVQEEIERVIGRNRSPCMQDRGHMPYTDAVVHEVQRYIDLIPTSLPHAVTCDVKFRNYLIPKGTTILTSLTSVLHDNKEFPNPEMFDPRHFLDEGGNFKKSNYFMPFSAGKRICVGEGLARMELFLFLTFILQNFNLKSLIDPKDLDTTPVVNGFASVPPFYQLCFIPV

[20] = Cmax in rat at 2.3 mg/kg, po; type: ADME, organism-based; set-up: route oral, dose 2.3 mg/kg; settings: in vivo
[21] = Ratio of unbound drug concentration in brain to blood in CD-1 mouse at 10 mg/kg, po measured at 2 hr post dose; type: ADME, organism-based
[22] = Half life in dog at 0.25 mg/kg, iv; type: ADME, organism-based, Canis lupus familiaris; settings: in vivo
[23] = Free drug concentration in dog plasma measured after 4.5 hrs by HPLC-MS/MS method; type: ADME, cell-free, Canis lupus familiaris
[24] = Clearance in rat at 0.25 mg/kg, iv relative to liver blood flow; type: ADME, organism-based; settings: in vivo
[25] = Toxicity in Beagle dog assessed as behavioral changes at 0.31 to 5 mg/kg, po; type: organism-based, Canis lupus familiaris; settings: in vivo, dose 0.31-5 mg/kg
Cytochrome P450 2C9 = Cytochrome P450 2C9 (Homo sapiens, UniProt P11712); experiment: Inhibition of human CYP2C9 by fluorescence plate reader analysis; type: ADME
Cytochrome P450 2C9, sequence (P11712 whole entry): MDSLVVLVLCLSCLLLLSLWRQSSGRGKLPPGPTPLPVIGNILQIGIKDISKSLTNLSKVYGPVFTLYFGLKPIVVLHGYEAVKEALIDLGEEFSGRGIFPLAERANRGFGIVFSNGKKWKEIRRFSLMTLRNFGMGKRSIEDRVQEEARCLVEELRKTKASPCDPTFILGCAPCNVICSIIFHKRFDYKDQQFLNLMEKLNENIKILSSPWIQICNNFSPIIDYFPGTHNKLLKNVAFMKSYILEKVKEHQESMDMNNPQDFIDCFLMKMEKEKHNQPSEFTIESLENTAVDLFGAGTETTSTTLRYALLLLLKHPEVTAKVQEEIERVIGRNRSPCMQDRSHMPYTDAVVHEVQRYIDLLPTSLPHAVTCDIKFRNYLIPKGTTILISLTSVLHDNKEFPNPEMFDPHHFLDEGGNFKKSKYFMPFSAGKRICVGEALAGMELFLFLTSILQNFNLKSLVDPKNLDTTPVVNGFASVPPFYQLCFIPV

[26] = Metabolic stability in human liver microsomes assessed as metabolite formation after 15 mins in presence of NADPH by LC-MS analysis; type: ADME, Microsome; settings: 0.25 h
[27] = Clearance in mouse at 0.28 mg/kg, iv relative to liver blood flow; type: ADME, organism-based; settings: in vivo
[28] = AUC (0 to last) in rat at 2.3 mg/kg, po; type: ADME, organism-based; set-up: time 0 - last, route oral, dose 2.3 mg/kg; settings: in vivo
[29] = Drug level in CD-1 mouse brain at 10 mg/kg, po measured at 4 hr post dose; type: ADME, organism-based; settings: read-out: Ct
[30] = AUC (0 to infinity) in dog at 0.25 mg/kg, iv; type: ADME, organism-based, Canis lupus familiaris; set-up: route intravenous, time infinity, dose 0.25 mg/kg; settings: in vivo
[31] = Clearance in mouse plasma at 0.28 mg/kg, iv; type: ADME, organism-based
[32] = Clearance in rat plasma at 0.25 mg/kg, iv; type: ADME, organism-based
[33] = Cmax in dog at 2.5 mg/kg, po; type: ADME, organism-based, Canis lupus familiaris; set-up: route oral, dose 2.5 mg/kg; settings: in vivo
[34] = biological target: Voltage-gated inwardly rectifying potassium channel KCNH2 (Homo sapiens, UniProt Q12809); experiment: Inhibition of hERG expressed in HEK293 cells at -80 mV holding potential by automated patch-clamp method; type: toxicity, cell-based
Voltage-gated inwardly rectifying potassium channel KCNH2, sequence (Q12809 whole entry, the tested form may be a part): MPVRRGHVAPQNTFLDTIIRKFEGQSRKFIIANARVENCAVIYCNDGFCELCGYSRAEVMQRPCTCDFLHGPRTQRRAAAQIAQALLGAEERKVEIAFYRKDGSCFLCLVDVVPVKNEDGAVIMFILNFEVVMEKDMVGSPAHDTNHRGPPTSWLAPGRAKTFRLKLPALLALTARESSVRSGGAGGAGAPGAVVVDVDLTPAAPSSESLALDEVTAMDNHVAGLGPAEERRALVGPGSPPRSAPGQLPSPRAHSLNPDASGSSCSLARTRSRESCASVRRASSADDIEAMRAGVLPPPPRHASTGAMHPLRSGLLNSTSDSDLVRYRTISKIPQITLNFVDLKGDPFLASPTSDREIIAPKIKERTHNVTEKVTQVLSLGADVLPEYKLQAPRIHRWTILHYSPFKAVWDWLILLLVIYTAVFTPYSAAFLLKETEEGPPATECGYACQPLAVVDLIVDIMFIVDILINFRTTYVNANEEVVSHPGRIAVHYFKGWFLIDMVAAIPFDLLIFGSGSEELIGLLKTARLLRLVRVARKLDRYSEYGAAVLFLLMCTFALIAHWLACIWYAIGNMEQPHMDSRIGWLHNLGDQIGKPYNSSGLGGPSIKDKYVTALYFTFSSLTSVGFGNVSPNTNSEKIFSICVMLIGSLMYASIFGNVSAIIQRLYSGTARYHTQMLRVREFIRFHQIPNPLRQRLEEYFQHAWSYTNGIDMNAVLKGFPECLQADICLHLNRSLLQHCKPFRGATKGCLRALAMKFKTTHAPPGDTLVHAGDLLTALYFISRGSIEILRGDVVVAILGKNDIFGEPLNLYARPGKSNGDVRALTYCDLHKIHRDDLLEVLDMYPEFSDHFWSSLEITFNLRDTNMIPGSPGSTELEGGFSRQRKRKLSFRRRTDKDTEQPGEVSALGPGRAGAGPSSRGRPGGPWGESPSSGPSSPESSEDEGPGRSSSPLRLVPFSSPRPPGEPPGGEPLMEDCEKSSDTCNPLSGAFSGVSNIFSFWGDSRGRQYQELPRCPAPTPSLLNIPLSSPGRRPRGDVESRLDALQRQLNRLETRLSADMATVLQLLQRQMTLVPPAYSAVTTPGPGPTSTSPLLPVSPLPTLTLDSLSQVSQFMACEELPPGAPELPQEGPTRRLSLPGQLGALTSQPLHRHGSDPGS

Beta-secretase 1 = Beta-secretase 1 (Homo sapiens, UniProt P56817); experiment: Inhibition of BACE1 (1 to 454 residues) (unknown origin) using APP harboring Swedish Lys/Met mutant-derived peptide as substrate by FRET assay
Beta-secretase 1, sequence (P56817 whole entry, the tested form may be a part): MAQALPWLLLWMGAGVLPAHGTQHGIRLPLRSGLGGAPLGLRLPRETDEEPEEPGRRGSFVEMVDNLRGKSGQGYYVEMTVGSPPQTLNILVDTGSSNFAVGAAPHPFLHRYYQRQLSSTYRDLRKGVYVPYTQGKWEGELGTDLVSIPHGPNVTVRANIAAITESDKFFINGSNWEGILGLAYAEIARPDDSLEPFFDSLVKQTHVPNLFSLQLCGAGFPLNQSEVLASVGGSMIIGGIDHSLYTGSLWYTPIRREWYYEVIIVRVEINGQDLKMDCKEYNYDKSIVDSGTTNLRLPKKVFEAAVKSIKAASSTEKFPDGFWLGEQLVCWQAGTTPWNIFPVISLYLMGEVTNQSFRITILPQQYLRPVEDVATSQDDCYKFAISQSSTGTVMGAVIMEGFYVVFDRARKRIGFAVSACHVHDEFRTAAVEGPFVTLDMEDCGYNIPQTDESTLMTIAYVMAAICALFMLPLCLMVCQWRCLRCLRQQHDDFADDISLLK

[35] = Cardiotoxicity in guinea pig assessed as effect on PQ interval upto 5 mg/kg, iv administered over 10 mins at 30 mins interval by ECG analysis; type: toxicity, organism-based, Cavia porcellus; settings: in vivo
[36] = Clearance in dog plasma at 0.25 mg/kg, iv; type: ADME, organism-based, Canis lupus familiaris
[37] = AUC (0 to infinity) in rat at 0.25 mg/kg, iv; type: ADME, organism-based; set-up: route intravenous, time infinity, dose 0.25 mg/kg; settings: in vivo
[38] = Cardiotoxicity in guinea pig assessed as effect on QT cB interval upto 5 mg/kg, iv administered over 10 mins at 30 mins interval by ECG analysis; type: toxicity, organism-based, Cavia porcellus; settings: in vivo

COc1cnc(C(=O)Nc2ccc(F)c([C@]3(C)Cn4nc(C#N)cc4C(N)=N3)c2)cn1
concentration at 2 h [1]: 866 ng/mL | Kp uu at 4 h [2]: 0.22 | Vd [3]: 4.2 L/kg | efflux ratio (MDR1): 5.3 | half-life [4]: 2.8 h | Activity [5]: 80% | concentration at 1 h [6]: 591 ng/mL | IC50 (Cytochrome P450 3A4): > 30 µM | Activity [7]: Non-Toxic | Activity [8]: 53% | IC50 (Cytochrome P450 2C8): > 30 µM | Activity [9]: Non-Toxic | concentration at 4 h [10]: 530 ng/mL | fraction unbound at 5 h [11]: 0.015 | fraction unbound at 4.5 h [12]: 0.05 | Tmax [13]: 5 h | AUClast [14]: 3840 ng·h/mL | Papp A→B at 2 h, 5 µM [15]: 13.1 ×10⁻⁶ cm/s | pKa [16]: 7.1 | Vd [17]: 5.3 L/kg | Activity [18]: Non-Toxic | bioavailability [19]: 67% | IC50 (Cytochrome P450 2C19): > 30 µM | Cmax [20]: 124 ng/mL | Kp uu at 2 h [21]: 0.29 | half-life [22]: 7.7 h | fraction unbound at 4.5 h [23]: 0.24 | CL [24]: 35% | Activity [25]: Non-Toxic | IC50 (Cytochrome P450 2C9): > 30 µM | Drug metabolism [26]: 8% | CL [27]: 25% | AUClast [28]: 1170 ng·h/mL | concentration at 4 h [29]: 402 ng/g | AUC [30]: 654 ng·h/mL | clearance [31]: 23 mL/min/kg | clearance [32]: 19 mL/min/kg | Cmax [33]: 352 ng/mL | IC50 [34]: > 10 µM | IC50 (Beta-secretase 1): 0.0029 µM | Activity [35]: Non-Toxic | clearance [36]: 6 mL/min/kg | AUC [37]: 219 ng·h/mL | Activity [38]: Non-Toxic
